This is an account of results in patent US9273057B2 (Bristol-Myers Squibb Company, priority 2012, dated 2016).

pIC50: −log10 of the molar value. Where a name gives a salt, the structure may show the parent alone.

CK2A1 (CK2α/β), sequence (P68400 whole entry, species assumed): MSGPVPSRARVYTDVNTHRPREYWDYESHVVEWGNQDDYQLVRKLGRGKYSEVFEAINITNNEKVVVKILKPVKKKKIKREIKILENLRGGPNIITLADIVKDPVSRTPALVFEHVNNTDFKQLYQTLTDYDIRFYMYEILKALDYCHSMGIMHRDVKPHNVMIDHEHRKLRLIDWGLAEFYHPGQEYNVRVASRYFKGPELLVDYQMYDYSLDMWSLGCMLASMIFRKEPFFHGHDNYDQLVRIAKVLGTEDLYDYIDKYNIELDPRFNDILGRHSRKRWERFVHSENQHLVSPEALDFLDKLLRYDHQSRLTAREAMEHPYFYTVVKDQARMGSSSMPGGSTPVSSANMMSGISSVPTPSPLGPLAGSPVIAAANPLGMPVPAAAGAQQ
CK2A1 (CK2α/β), sequence (P67870 whole entry partner, species assumed): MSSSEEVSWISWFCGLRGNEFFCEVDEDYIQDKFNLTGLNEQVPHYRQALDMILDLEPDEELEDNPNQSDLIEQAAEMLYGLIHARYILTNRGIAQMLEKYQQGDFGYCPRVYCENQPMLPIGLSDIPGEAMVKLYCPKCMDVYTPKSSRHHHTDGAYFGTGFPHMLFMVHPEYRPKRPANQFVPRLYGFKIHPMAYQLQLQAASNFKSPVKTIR

This test has as its target CK2A1 (CK2α/β) (Homo sapiens, UniProt P68400). Briefly: CK2 kinase assay, CK2A1 (CK2α/β). The test is classed as biochemical. Particulars: Table A; read-out: CK2A1 (CK2α/β) (IC50).
For `CO[C@@H]1CN(c2cc(C#N)cc(Nc3nc(NC4CC4)c4ncc(C#N)n4n3)c2Cl)CC1NC1COC1` (stereo in doubt) [Example 302, 2-((2-chloro-5-cyano-3-((3R,4S)-3-methoxy-4-(oxetan-3-ylamino)pyrrolidin-1-yl)phenyl)amino)-4-(cyclopropylamino)imidazo[2,1-f][1,2,4]triazine-7-carbonitrile, HCl], the pIC50 was 8.77.
The value for `N#Cc1cc(Nc2nc(NC3CC3)c3ncc(C#N)n3n2)c(Cl)c(N2CCN(CC3CCCO3)CC2)c1` (stereo not drawn) [Example 531, 2-((2-chloro-5-cyano-3-(4-((tetrahydrofuran-2-yl)methyl)piperazin-1-yl)phenyl)amino)-4-(cyclopropylamino)imidazo[2,1-f][1,2,4]triazine-7-carbonitrile] was 9.36.
The value for `CC(C)(O)C1CCN(CCCc2cc(Cl)c(Nc3nc(NC4CC4)c4ncc(C#N)n4n3)cc2C#N)CC1` [Example 568, 2-((2-chloro-5-cyano-4-(3-(4-(2-hydroxypropan-2-yl)piperidin-1-yl)propyl)phenyl)amino)-4-(cyclopropylamino)imidazo[2,1-f][1,2,4]triazine-7-carbonitrile] was 8.71; that for `N#Cc1cc(Nc2nc(NC3CC3)c3ncc(C#N)n3n2)c(Cl)c([C@H]2CCC[C@@H](N3CC(F)C3)C2)c1` [Example 726, 2-({2-chloro-5-cyano-3-[(1S,3R)-3-(3-fluoroazetidin-1-yl)cyclohexyl]phenyl}amino)-4-(cyclopropylamino)imidazo [2,1-f][1,2,4]triazine-7-carbonitrile] was 8.63; that for `N#Cc1cc(Nc2nc(NC3CC3)c3ncc(C#N)n3n2)c(Cl)c(N2C[C@@H](O)[C@H](N3CCOCC3)C2)c1` [Example 307, 2-((2-chloro-5-cyano-3-((3R,4R)-3-hydroxy-4-(4-morpholinyl)-1-pyrrolidinyl)phenyl)amino)-4-(cyclopropylamino)imidazo[2,1-f][1,2,4]triazine-7-carbonitrile] was 9.06.
`CC1(N2CCN(c3cc(C#N)cc(Nc4nc(NC5CC5)c5ncc(C#N)n5n4)c3Cl)CC2)COC1` [Example 311, 2-((2-chloro-5-cyano-3-(4-(3-methyl-3-oxetanyl)-1-piperazinyl)phenyl)amino)-4-(cyclopropylamino)imidazo[2,1-f][1,2,4]triazine-7-carbonitrile]: the pIC50 was 9.02.
Consider `N#Cc1cc(Nc2nc(NC3CC3)c3ncc(C#N)n3n2)c(Cl)c(N2CCN(C(=O)C3CC3)CC2)c1` [Example 74, 2-((2-chloro-5-cyano-3-(4-(cyclopropylcarbonyl)-1-piperazinyl)phenyl)amino)-4-(cyclopropylamino) imidazo[2,1-f][1,2,4] triazine-7-carbonitrile], for which the pIC50 is 9.26.
For `N#Cc1cc(Nc2nc(NC3CC3)c3ncc(C#N)n3n2)c(Cl)c(N2CCC3C(CCN3[C@H]3COC[C@@H]3O)C2)c1` (mixture of isomers) [Example 451, (+/−)-2-((2-chloro-5-cyano-3-(1-((3S,4R)-4-hydroxytetrahydrofuran-3-yl)hexahydro-1H-pyrrolo[3,2-c]pyridin-5(6H)-yl)phenyl)amino)-4-(cyclopropylamino)imidazo[2,1-f][1,2,4]triazine-7-carbonitrile], the pIC50 is 8.26.
The value for `COC(CO)CNC1CN(c2cc(C(F)F)cc(Nc3nc(NC4CC4)c4ncc(C#N)n4n3)c2Cl)C1` (racemic) [Example 262, (+/−) 2-((2-chloro-5-(difluoromethyl)-3-(3-((3-hydroxy-2-methoxypropyl)amino)-1-azetidinyl)phenyl)amino)-4-(cyclopropylamino)imidazo[2,1-f][1,2,4]triazine-7-carbonitrile] was 8.30; that for `N#Cc1cc(Nc2nc(NC3CC3)c3ncc(C#N)n3n2)c(Cl)cc1CCCCN1CCOCC1` [Example 572, 2-((2-chloro-5-cyano-4-(4-morpholinobutyl)phenyl)amino)-4-(cyclopropylamino)imidazo[2,1-f][1,2,4]triazine-7-carbonitrile] was 9.18; that for `COCCN1CCC(c2cc(C#N)cc(Nc3nc(NC4CC4)c4ncc(C#N)n4n3)c2Cl)CC1` [Example 211, 2-(2-chloro-5-cyano-3-(1-(2-methoxyethyl)piperidin-4-yl)phenylamino)-4-(cyclopropylamino)imidazo[1,2-f][1,2,4]triazine-7-carbonitrile] was 9.05.
`CCNc1nc(Nc2cc(C#N)cc(N3CC[C@@H](NC(=O)OC)[C@H](OC(=O)[C@@H](N)[C@@H](C)O)C3)c2Cl)nn2c(C#N)cnc12` [Example 810, (2S,3R)-(3R,4R)-1-(2-chloro-5-cyano-3-((7-cyano-4-(ethylamino)imidazo[2,1-f][1,2,4]triazin-2-yl)amino)phenyl)-4-((methoxycarbonyl)amino)piperidin-3-yl 2-amino-3-hydroxybutanoate hydrochloride]: the pIC50 is 8.42.
The value for `COC(=O)N[C@H]1CCN(c2cc(C#N)cc(Nc3nc(NC4CC4)c4ncc(C#N)n4n3)c2Cl)C[C@@H]1OC(=O)CN` [Example 193, (3S,4S)-1-(2-chloro-5-cyano-3-((7-cyano-4-(cyclopropylamino)imidazo[2,1-f][1,2,4]triazin-2-yl)amino)phenyl)-4-((methoxycarbonyl)amino)-3-piperidinyl glycinate] was 8.22; that for `C[C@@H]1CN(c2cc(C#N)cc(Nc3nc(NC4CC4)c4ncc(C#N)n4n3)c2Cl)C[C@H](C)N1C` [Example 24, (+/−) 2-((2-chloro-5-cyano-3-((3R,5S)-3,4,5-trimethyl-1-piperazinyl)phenyl)amino)-4-(cyclopropylamino)imidazo [2,1-f][1,2,4]triazine-7-carbonitrile] was 9.00; that for `N#Cc1cc(Nc2nc(NC3CC3)c3ncc(C#N)n3n2)c(Cl)c(N2CCN(CCO)CC2=O)c1` [Example 634, 2-((2-chloro-5-cyano-3-(4-(2-hydroxyethyl)-2-oxopiperazin-1-yl)phenyl)amino)-4-(cyclopropylamino)imidazo[2,1-f][1,2,4]triazine-7-carbonitrile] was 8.52.
The value for `N#Cc1cc(Nc2nc(NC3CC3)c3ncc(C#N)n3n2)c(Cl)c(N2CCC3C(CCN3C[C@H](O)CF)C2)c1` (stereo partly drawn) [Example 449, 2-((2-chloro-5-cyano-3-(1-((S)-3-fluoro-2-hydroxypropyl)hexahydro-1H-pyrrolo[3,2-c]pyridin-5(6H)-yl)phenyl)amino)-4-(cyclopropylamino)imidazo[2,1-f][1,2,4]triazine-7-carbonitrile] was 9.04; that for `N#Cc1cc(Nc2nc(NC3CC3)c3ncc(C#N)n3n2)c(Cl)c(N2CC[C@@H]3[C@@H](CCN3[C@H]3CS(=O)(=O)C[C@@H]3O)C2)c1` [Example 452, 2-((2-chloro-5-cyano-3-(1-((3R,4R)-4-hydroxy-1,1-dioxidotetrahydrothiophen-3-yl)hexahydro-1H-pyrrolo[3,2-c]pyridin-5(6H)-yl)phenyl)amino)-4-(cyclopropylamino)imidazo[2,1-f][1,2,4]triazine-7-carbonitrile] was 9.09.
The same measure for `N#Cc1cc(Nc2nc(NC3CC3)c3ncc(C#N)n3n2)c(Cl)c(N2CCC3(CC2)CN(CC(=O)N2CCNCC2)C3)c1` [Example 804]: 8.77.
